Patent US6605628B1, “Method of using 5-(arysulfonyl)-, 5-(arylsulfanyl)-and 5-(arylsulfanyl)thiazolidine-2,4-diones for inhibition of farnesyl-protein transferase” (Wyeth Holdings Corporation, priority 2001, dated 2003)

Legend:
FPTase [1] = target: T1, FPTase (Homo sapiens, UniProt P49354+P49356); test: in vitro FTase Inhibition Assay, K-Ras used as substrate for farnesylation; format: biochemical; details: Table I
FPTase [2] = target: T1, FPTase; test: in vitro FTase Inhibition Assay, H-Ras used as substrate for farnesylation; format: biochemical; details: Table I, read-out: IC50 H-Ras*

Row | Structure (SMILES) | melting point | IC50 (FPTase [1]) | IC50 (FPTase [2])
1 | COc1ccc(S(=O)(=O)C2(CCCC#Cc3ccc(C#N)cc3)SC(=O)NC2=O)cc1 (stereo not drawn) [Example 158, 4-(5-[5-(4-Methoxybenzenesulfonyl)-2,4-dioxo-thiazolidin-5-yl]pent-1-ynyl}benzonitrile] | 174 to 178 °C | 3800 nM | 150 nM
2 | Cc1ccc([N+](=O)[O-])cc1C#CCCCC1(S(=O)(=O)c2ccc3ccccc3c2)SC(=O)NC1=O (stereo not drawn) [Example 127, 5-[5-(2-Methyl-5-nitrophenyl)pent-4-ynyl]-5-(naphthalene-2-sulfonyl)-thiazolidine-2,4-dione] | 197 to 200 °C | 1300 to 1500 nM | 120 to 140 nM
3 | Cc1ccc(S(=O)(=O)C2(CCCC#Cc3ccc(Cl)cc3)SC(=O)NC2=O)cc1 (stereo not drawn) [Example 103, 5-[5-(4-Chlorophenyl)pent-4-ynyl]-5-(p-tolylsulfonyl)thiazolidine-2,4-dione] | 176 to 177 °C | 900 to 10000 nM | 30 to 50 nM
4 | COc1ccc(S(=O)(=O)C2(CCCC#Cc3cccc([N+](=O)[O-])c3)SC(=O)NC2=O)cc1 (stereo not drawn) [Example 118, 5-(4-Methoxybenzenesulfonyl)-5-[5-(3-nitrophenyl)pent-4-ynyl]thiazolidine-2,4-dione] | 126 to 130 °C | 1900 nM | 70 nM
5 | Cc1ccc([N+](=O)[O-])cc1C#CCCCC1(S(=O)(=O)c2ccc(I)cc2)SC(=O)NC1=O (stereo not drawn) [Example 125, 5-(4-Iodobenzenesulfonyl)-5-[5-(2-methyl-5-nitrophenyl)pent-4-ynyl]-thiazolidine-2,4-dione] | 188 to 190 °C | 400 nM | 30 nM
6 | O=C1NC(=O)C(CCCC#Cc2ccc(-n3cccc3)cc2)(S(=O)(=O)c2ccc(I)cc2)S1 (stereo not drawn) [Example 162, 5-(4-Iodo-benzenesulfonyl)-5-[5-(4-pyrrol-1-yl-phenyl)pent-4-ynyl]-thiazolidine-2,4-dione] | 194 to 195 °C | 4000 nM | 1210 nM
7 | COc1ccc(S(=O)(=O)C2(CCCC#Cc3cc(C)ccc3C)SC(=O)NC2=O)cc1 (stereo not drawn) [Example 135, 5-[5-(2,5-Dimethylphenyl)pent-4-ynyl]-5-(4-methoxybenzenesulfonyl)-thiazol idine-2 ,4-dione] | 149 to 150 °C | 1900 to 2100 nM | 20 to 32 nM
8 | COc1ccc(S(=O)(=O)C2(CCCC#Cc3cccc(Cl)c3)SC(=O)NC2=O)cc1 (stereo not drawn) [Example 102, 5-[5-(3-Chlorophenyl)pent-4-ynyl]-5-(4-methoxybenzenesulfonyl)thiazolidine-2,4-dione] | 134 to 136 °C | 1400 nM | 30 to 32 nM
9 | O=C1NC(=O)C(CCCC#Cc2ccc([N+](=O)[O-])cc2)(S(=O)(=O)c2ccc(I)cc2)S1 (stereo not drawn) [Example 120, 5-(4-Iodobenzenesulfonyl)-5-[5-(4-nitrophenyl)pent-4-ynyl]thiazolidine-2,4-dione] | 205 to 207 °C | 530 to 1000 nM | 18 to 32 nM
10 | COc1cccc(S(=O)(=O)C2(CCCC#Cc3cccs3)SC(=O)NC2=O)c1 (stereo not drawn) [Example 164, 5-(3-Methoxybenzenesulfonyl)-5-(5-thiophen-2-yl-pent-4-ynyl)-thiazolidine-2,4-dione] | 133 to 135 °C | > 10000 nM | 150 nM
11 | COc1ccc(S(=O)(=O)C2(CCCC#Cc3cc(C(=O)NC(C)(C)C)ccc3C)SC(=O)NC2=O)cc1 (stereo not drawn) [Example 152, N-tert-Butyl-3-{5-[5-(4-methoxybenzenesulfonyl)-2,4-dioxothiazol-idin-5-yl]pent-1-ynyl}-4-methyl-benzamide] | 205 to 208 °C | 100 to 230 nM | 11 to 16 nM
12 | COC(=O)c1ccc(C)c(C#CCCCC2(S(=O)(=O)c3ccc(OC)cc3)SC(=O)NC2=O)c1 (stereo not drawn) [Example 155, 3-{5-[5-(4-Methoxybenzenesulfonyl)-2,4-dioxo-thiazolidin-5-yl]-pent-1-ynyl}-4-methylbenzoic Acid Methyl Ester] | 119 to 121 °C | 420 to 440 nM | 10 to 320 nM
13 | O=C1NC(=O)C(CCCC#Cc2ccc(Cl)cc2)(S(=O)(=O)c2cccc3ccccc23)S1 (stereo not drawn) [Example 113, 5-[5-(4-Chlorophenyl)pent-4-ynyl]-5-(naphthalene-1-sulfonyl)-thiazolidine-2,4-dione] | 172 to 174 °C | 750 to 800 nM | 50 to 60 nM
14 | Cc1ccc([N+](=O)[O-])cc1C#CCCCC1(S(=O)(=O)c2cccc3ccccc23)SC(=O)NC1=O (stereo not drawn) [Example 126, 5-[5-(2-Methyl-5-nitrophenyl)-pent-4-ynyl]-5-(naphthalene-1-sulfonyl)-thiazolidine-2,4-dione] | 168 to 172 °C | 1700 nM | 90 nM
15 | COc1ccc(S(=O)(=O)C2(CCCC#Cc3cccs3)SC(=O)NC2=O)cc1 (stereo not drawn) [Example 166, 5-(4-Methoxybenzenesulfonyl)-5-(5-thiophen-2-yl-pent-4-ynyl)-thiazolidine-2,4-dione] | 60 to 66 °C | 5300 nM | 150 nM
16 | Cc1ccc(S(=O)(=O)C2(CCCC#Cc3ccc(C(C)(C)C)cc3)SC(=O)NC2=O)cc1 (stereo not drawn) [Example 157, 5-[5-(4-tert-Butylphenyl)pent-4-ynyl]-5-(toluene-4-sulfonyl)thiazolidine-2,4-dione] | 134 to 138 °C | 5000 nM | 270 nM
17 | CC(=O)Nc1ccc(S(=O)(=O)C2(CCCC#Cc3ccc(Cl)cc3)SC(=O)NC2=O)cc1 (stereo not drawn) [Example 108, N-(4-{5-[5-(4-Chlorophenyl)pent-4-ynyl]-2,4-dioxothiazolidine-5-sulfonyl}phenyl)acetamide] | 232 °C (dec.) | ≥ 9000 nM | 130 to 180 nM
18 | Cc1cc(Cl)ccc1C#CCCCC1(S(=O)(=O)c2ccc(I)cc2)SC(=O)NC1=O (stereo not drawn) [Example 141, 5-(5-(4-Chloro-2-methylphenyl)-pent-4-ynyl]-5-(4-iodobenzene-sulfonyl)-thiazolidine-2,4-dione] | 93 to 99 °C | 300 to 340 nM | 21 to 32 nM
19 | Cc1ccc(C#CCCCC2(S(=O)(=O)c3ccc(I)cc3)SC(=O)NC2=O)c(C)c1 (stereo not drawn) [Example 137, 5-[5-(2,4-Dimethylphenyl)pent-4-ynyl]-5-(4-iodobenzenesulfonyl)-thiazolidine-2,4-dione] | 153 to 154 °C | 37 to 800 nM | 21 to 400 nM
20 | O=C1NC(=O)C(CCCC#Cc2ccc(Cl)cc2)(S(=O)(=O)c2ccc(I)cc2)S1 (stereo not drawn) [Example 104, 5-[5-(4-Chlorophenyl)pent-4-ynyl]-5-(4-iodobenzenesulfonyl)thiazolidine-2,4-dione] | 157 to 159 °C | 230 to 900 nM | 30 to 54 nM
21 | O=C1NC(=O)C(CCCC#Cc2cc(Cl)ccc2Cl)(S(=O)(=O)c2ccc(Oc3ccncc3)cc2)S1 (stereo not drawn) [Example 116, 5-[5-(2,5-Dichlorophenyl)pent-4-ynyl]-5-[4-(pyridin-4-yloxy)benzenesulfonyl]thiazolidine-2,4-dione] | 179 to 180 °C (dec.) | 17 to 40 nM | 5 to 10 nM
22 | O=C1NC(=O)C(CCCC#Cc2ccc(Cl)cc2)(S(=O)(=O)c2ccc(Oc3ccccc3)cc2)S1 (stereo not drawn) [Example 106, 5-[5-(4-Chlorophenyl)pent-4-ynyl]-5-(4-phenoxybenzenesulfonyl)-thiazolidine-2,4-dione] | 193 to 194 °C | 1300 to 1700 nM | 230 to 250 nM
